Data as given in PMC10971055 (International Journal of Molecular Sciences, 2024).
Like-named read-outs stand apart in the source and are kept apart here.

What was measured:
COX-1 = assay: Western blotting of COX-1
human recombinant COX-2 = molecular target: T1, human recombinant COX-2 (Homo sapiens, UniProt P35354); assay: COX-2 inhibition, ELISA kit; assay type: biochemical
T1 construct: purchased Cayman Chemical Item No. 560131
T1 sequence (P35354 18-604): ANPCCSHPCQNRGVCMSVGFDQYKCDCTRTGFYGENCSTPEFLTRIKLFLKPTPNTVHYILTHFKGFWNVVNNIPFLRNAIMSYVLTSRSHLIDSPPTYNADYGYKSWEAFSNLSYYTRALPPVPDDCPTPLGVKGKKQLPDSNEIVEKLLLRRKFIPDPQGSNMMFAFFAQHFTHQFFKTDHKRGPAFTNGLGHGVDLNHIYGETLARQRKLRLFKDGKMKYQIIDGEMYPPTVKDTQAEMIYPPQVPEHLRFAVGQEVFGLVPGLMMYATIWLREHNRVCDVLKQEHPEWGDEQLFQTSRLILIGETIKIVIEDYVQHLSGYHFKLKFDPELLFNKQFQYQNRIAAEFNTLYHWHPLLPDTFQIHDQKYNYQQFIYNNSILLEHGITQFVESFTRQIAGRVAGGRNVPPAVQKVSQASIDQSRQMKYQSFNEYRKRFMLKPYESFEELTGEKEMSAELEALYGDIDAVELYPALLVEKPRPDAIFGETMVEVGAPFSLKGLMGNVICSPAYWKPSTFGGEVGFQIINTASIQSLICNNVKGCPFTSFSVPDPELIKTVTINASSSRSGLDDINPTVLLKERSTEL
Description: (§1) The compounds’ abilities were evaluated in vitro to inhibit ovine COX-1 and human recombinant COX-2 isozymes using ELISA [46].

ovine COX-1 = molecular target: T2, ovine COX-1 (Ovis aries, UniProt P05979); assay: COX-1 inhibition, ELISA kit; assay type: biochemical; settings: average of three determinations
T2 construct: purchased Cayman Chemical Item No. 560131
T2 sequence (P05979 25-600): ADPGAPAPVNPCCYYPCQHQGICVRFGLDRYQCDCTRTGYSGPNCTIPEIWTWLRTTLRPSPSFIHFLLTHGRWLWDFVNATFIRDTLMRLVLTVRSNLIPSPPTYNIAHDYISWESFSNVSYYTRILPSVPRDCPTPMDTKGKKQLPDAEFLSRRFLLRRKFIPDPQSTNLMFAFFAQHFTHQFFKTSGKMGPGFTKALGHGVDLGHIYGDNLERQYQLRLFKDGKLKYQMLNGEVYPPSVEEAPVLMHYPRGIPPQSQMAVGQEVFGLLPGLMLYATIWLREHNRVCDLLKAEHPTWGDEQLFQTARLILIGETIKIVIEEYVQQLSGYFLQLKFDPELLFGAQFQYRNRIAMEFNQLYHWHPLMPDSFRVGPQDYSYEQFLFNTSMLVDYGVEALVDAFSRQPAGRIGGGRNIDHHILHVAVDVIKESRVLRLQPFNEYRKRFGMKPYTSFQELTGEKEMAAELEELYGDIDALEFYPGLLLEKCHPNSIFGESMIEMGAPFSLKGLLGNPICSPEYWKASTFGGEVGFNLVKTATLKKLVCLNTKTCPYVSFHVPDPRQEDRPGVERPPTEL
Description: as §1

fibroblast cells = assay: MTT test, cytotoxicity; assay type: cell-based; settings: 24 h, read-out: IC50 against fibroblast cells
Description: The cytotoxicity of the IA was investigated during 24 h at various concentrations against fibroblast cell lines using the MTT test. […].
The MTT Reagent was purchased from Biospes (Biospes, China, Cat n#BAR1005-1), and used according to the manufacturer’s instructions. Twenty-four hours prior to the MTT experiment, breast cancer cell lines (MCF-7 Cell Line) were seeded at a concentration of 5 × 10^4 cells per well in 96-well microplates to facilitate microplate adherence. Various agent concentrations were administered to the cultured cells. The cells were treated with 10 μL of MTT solution, and 100 μL of serum-free medium was added to every well. The plate was kept at 37 °C for 4 h in a CO2 incubator. Then, each well received 100 μL of formazan diluent buffer. The plate was incubated at 37 °C for the entire night after being wrapped in foil and given a 15-min orbital shake. An ELISA plate reader (Stat Fax 2200, Awareness Technologies, Palm City, FL, USA) was used to measure color absorbance in the OD range of 450–630 nm.
For every sample, the mean of the three readings was computed. Cell survival was calculated at the very end using the following equation:(1) % of cell viability= Asample/Acontrol×100
Acontrol is the absorbance of the cell culture after treatment with formazan buffer and MTT without added any drug. […]

[1] = Solubility in different solvents; assay type: physicochemical; settings: qualitative

| COX-2 S.I. (human recombinant COX-2; Selectivity index (COX-1 IC50/COX-2 IC50)) | IC50 (human recombinant COX-2; average of three determinations) | IC50 (ovine COX-1) | melting point | Solubility in solvents [1] | Structure (SMILES) | IC50 (COX-1) | IC50 (fibroblast cells; MTT test) | IC50 (fibroblast cells) |
| --- | --- | --- | --- | --- | --- | --- | --- | --- |
| 2.8 | 3.6 µM | 10.2 µM | 135 °C | soluble in alcohols, DMSO, and DMF | CC(=O)CC(C)=NNC(=O)C(C)c1ccc(CC(C)C)cc1 (stereo not drawn) [IA, (E)-2-(4-isobutylphenyl)-N′-(4-oxopentan-2-ylidene) propane hydrazide] | 0.946 µM | 3.43 µM |  |
|  |  |  |  |  | CC(C)Cc1ccc(C(C)C(=O)O)cc1 (stereo not drawn) [Ibuprofen, reference compound] | […] |  | 31.4 µM |
